Test results taken from patent US6114390A, “Amino acid derivatives, pharmaceutical compositions containing these compounds and processes for preparing them” (Karl Thomae GmbH, priority 1997, dated 2000).

Tests used:
humanY2 = target: T1, humanY2 (Homo sapiens, UniProt P49146); experiment: Receptor binding, SMS-KAN cells (Y2); settings: read-out: Affinity IC50, humanY2/SMS-KAN
T1 construct: endoge- nously expressing Y1 and Y2 receptors; endogenous in cells; host or cells: SMS-KAN (neuroblastoma) cells
T1 sequence (P49146 1-381): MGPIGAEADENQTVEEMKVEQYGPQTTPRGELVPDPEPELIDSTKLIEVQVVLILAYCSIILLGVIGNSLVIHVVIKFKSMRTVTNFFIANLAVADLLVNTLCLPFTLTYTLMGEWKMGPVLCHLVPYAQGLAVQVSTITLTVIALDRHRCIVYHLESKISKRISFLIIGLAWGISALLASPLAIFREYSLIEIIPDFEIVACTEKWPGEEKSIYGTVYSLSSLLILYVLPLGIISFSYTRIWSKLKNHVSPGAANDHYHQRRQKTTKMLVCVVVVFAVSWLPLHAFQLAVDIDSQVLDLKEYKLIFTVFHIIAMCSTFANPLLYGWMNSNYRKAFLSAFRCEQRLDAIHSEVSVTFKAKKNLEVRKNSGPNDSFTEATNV
Procedure: SMS-KAN (neuroblastoma) cells: Cells were grown and receptor binding assay performed analogously as described hereinbefore under A and by Wieland et al. in Peptides 16, 1389-1394 (1995).

human Y4 receptor = target: T2, human Y4 receptor (Homo sapiens, UniProt P50391); experiment: Receptor binding, CHO cells transiently transfected with human Y4 receptor; settings: means ± S.E.M. of 3 to 5 experiments, read-out: Affinity IC50, humanY4/CHO
T2 construct: expressed in transfected cells; host or cells: CHO
T2 sequence (P50391 whole entry): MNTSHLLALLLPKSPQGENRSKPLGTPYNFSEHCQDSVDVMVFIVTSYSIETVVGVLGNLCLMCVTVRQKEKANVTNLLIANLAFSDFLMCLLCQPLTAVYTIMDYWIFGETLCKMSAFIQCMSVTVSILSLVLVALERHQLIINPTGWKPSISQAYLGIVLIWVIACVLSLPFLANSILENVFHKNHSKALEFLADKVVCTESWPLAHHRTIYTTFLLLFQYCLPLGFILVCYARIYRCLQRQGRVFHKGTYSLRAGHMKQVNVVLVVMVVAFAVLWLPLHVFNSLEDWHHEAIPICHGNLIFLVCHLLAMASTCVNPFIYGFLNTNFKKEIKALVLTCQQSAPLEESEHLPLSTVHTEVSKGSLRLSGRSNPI
Procedure: (§1) CHO cells transiently transfected with human Y4 and rat Y5 receptor: Transfection was performed using the lipofectamine method according to the manufacturer's protocol (GIBCO BRL Eggenstein, Germany) using expression plasmids encoding the rat Y5 or human Y4 receptor, respectively. Receptor binding was performed as described for rat Y1 expressing HEK 293 cells.

rat Y4 receptor = target: T3, rat Y4 receptor (Rattus norvegicus, UniProt Q63447); experiment: Receptor binding, BHK cells stably transfected with rat Y4 receptor; settings: read-out: Affinity IC50, ratY4/BHK
T3 construct: expressed in transfected cells; host or cells: BHK
T3 sequence (Q63447 whole entry): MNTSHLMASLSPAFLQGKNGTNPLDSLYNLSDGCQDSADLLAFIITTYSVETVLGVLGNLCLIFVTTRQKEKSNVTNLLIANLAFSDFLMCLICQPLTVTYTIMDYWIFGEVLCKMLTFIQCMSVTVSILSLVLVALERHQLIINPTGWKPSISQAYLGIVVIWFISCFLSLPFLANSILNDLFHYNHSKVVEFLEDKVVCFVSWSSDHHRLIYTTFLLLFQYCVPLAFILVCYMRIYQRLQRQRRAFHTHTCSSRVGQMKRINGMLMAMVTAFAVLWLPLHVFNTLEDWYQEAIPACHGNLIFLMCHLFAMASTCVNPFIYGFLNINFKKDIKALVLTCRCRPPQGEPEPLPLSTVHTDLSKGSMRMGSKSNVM
Procedure: BHK cells stably transfected with rat Y4 receptor: Cultivation and receptor binding was performed as described for hY1/BHK with exception of incubation medium (25 mM HEPES, 2.5 mM CaCl2, 1.0 mM MgCl2, pH 7.4) and final concentration of cell suspension 5×10^5 cells/ml. 24 h before receptor binding assay 1.0 mM IPTG was added for induction of expression. Incubation time for binding assay: 2 h.

rat Y5 receptor = target: T4, rat Y5 receptor (Rattus norvegicus, UniProt Q63634); experiment: Receptor binding, CHO cells transiently transfected with rat Y5 receptor; settings: means ± S.E.M. of 3 to 5 experiments, read-out: Affinity IC50, ratY5/CHO
T4 construct: expressed in transfected cells; host or cells: CHO
T4 sequence (Q63634 1-445): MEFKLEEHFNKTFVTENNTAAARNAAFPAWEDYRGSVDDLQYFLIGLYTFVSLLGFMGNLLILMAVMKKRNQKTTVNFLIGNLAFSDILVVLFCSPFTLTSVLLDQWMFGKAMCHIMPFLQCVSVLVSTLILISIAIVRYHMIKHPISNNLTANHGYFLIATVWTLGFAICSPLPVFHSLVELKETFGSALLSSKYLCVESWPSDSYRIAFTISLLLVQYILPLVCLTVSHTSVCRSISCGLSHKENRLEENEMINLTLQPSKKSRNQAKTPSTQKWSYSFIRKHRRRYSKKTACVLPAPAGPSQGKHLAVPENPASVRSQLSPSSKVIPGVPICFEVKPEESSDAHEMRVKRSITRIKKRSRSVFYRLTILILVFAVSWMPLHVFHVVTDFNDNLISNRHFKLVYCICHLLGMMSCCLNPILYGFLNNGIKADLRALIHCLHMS
Procedure: as §1

NPY = experiment: In vivo NPY-antagonism, NPY-induced blood pressure effects in pithed rats; settings: Rattus norvegicus, iv, 1 min, NPY 10 μg/kg i.v., diastolic blood pressure, read-out: pIC50 (in vivo NPY-antagonism) (converted)
Procedure: After intubation of the trachea the animals are pithed by introducing a blunt needle through the eye into the spinal bone marrow channel. The animals are ventilated with oxygen-rich ambient air using a respiratory pump (20 strokes/minute). A cannula is inserted in the left carotid artery and the arterial blood pressure is measured using a pressure gauge (Braun Melsungen Combitrans) connected to a recording device. For injection purposes a catheter is placed in the left jugular vein through which heparin is administered (200 IU/kg, i.v.). After the blood pressure has been stabilised, the animals are given 2 bolus injections of NPY (10 μg/kg, i.v.) at intervals of 15 minutes. The average increase in diastolic blood pressure is taken as the reference value (=100%). The test substances are injected in increasing doses (4 to 6 doses) at intervals of 15 minutes. One minute after administration of the test substance, NPY is administered.
The antagonistic effect of the test substances is determined by plotting the percentage inhibition of the NPY-induced blood pressure effects against the logarithm of the concentration of active substance.

N=C(N)NCCC[C@@H](NC(=O)C(c1ccccc1)c1ccccc1)C(=O)NCc1ccc(CNC(N)=O)cc1 [Compound C]
IC50 (humanY2): > 10 µM
IC50 (human Y4 receptor): 12.3 µM
IC50 (rat Y4 receptor): > 10 µM
IC50 (rat Y5 receptor): 21 µM
ED50 (NPY): 0.00776 µmol/kg
